Experimental data: ChEMBL document CHEMBL1153152, “Amino acid based enantiomerically pure 3-substituted benzofused heterocycles: A new class of antithrombotic agents” (Bioorg Med Chem Lett, 2010)

Key:
Mus musculus [1] = experiment: Toxicity in mouse assessed as increase in bleeding time at 30 mg/kg, po; type: organism-based; parameters: dose 30 mg/kg, route oral; conditions: in vivo
Mus musculus [2] = experiment: Antithrombotic activity in mouse assessed as protection against collagen and adrenaline-induced hind limb paralysis at 30 mg/kg, po for 60 mins; type: functional, Hindlimb

SMILES	Activity (Mus musculus [1])	Activity (Mus musculus [2]) [%]
COc1ccc2c(c1)CN(S(=O)(=O)c1ccc(C)cc1)[C@@H](CC(C)C)CO2	6%	30
Cc1ccc(S(=O)(=O)N2Cc3ccccc3OC[C@@H]2C)cc1	25%	20
Cc1ccc(S(=O)(=O)N2C[C@H](Cc3ccccc3)N(S(=O)(=O)c3ccc(C)cc3)CCc3ccccc32)cc1	22%	20
COc1cccc2c1OC[C@H](Cc1ccc(O)cc1)N(S(=O)(=O)c1ccc(C)cc1)C2	24%	45
Cc1ccc(S(=O)(=O)N2Cc3ccccc3OC[C@@H]2Cc2c[nH]c3ccccc23)cc1	33%	40
COc1ccc2c(c1)CN(S(=O)(=O)c1ccc(C)cc1)[C@@H](Cc1c[nH]c3ccccc13)CO2	12%	20
Cc1ccc(S(=O)(=O)N2Cc3ccccc3OC[C@@H]2C(C)C)cc1	22%	20
Cc1ccc(S(=O)(=O)N2CCc3ccccc3OC[C@@H]2Cc2ccc(O)cc2)cc1	Non-toxic	40
Cc1ccc(S(=O)(=O)N2C[C@H](Cc3ccc(OCc4ccccc4)cc3)N(S(=O)(=O)c3ccc(C)cc3)CCc3ccccc32)cc1	Non-toxic	30
Cc1ccc(S(=O)(=O)N2C[C@H](Cc3ccc(OCc4ccccc4)cc3)N(S(=O)(=O)c3ccc(C)cc3)Cc3ccccc32)cc1	4%	20
Cc1ccc(S(=O)(=O)N2Cc3ccccc3OC[C@@H]2Cc2ccc(O)cc2)cc1	Non-toxic	0
Cc1ccc(S(=O)(=O)N2Cc3ccccc3OC[C@@H]2Cc2ccccc2)cc1	Non-toxic	20
Cc1ccc(S(=O)(=O)N2Cc3ccccc3OC[C@@H]2CC(C)C)cc1	60%	10
CC(=O)Oc1ccccc1C(=O)O [ASPIRIN]	100%	37
Cc1ccc(S(=O)(=O)N2Cc3ccccc3SC[C@@H]2Cc2ccc(OCc3ccccc3)cc2)cc1	28%	10
Cc1ccc(S(=O)(=O)N2CCc3ccccc3OC[C@@H]2C)cc1	Non-toxic	40
Cc1ccc(S(=O)(=O)N2C[C@H](Cc3ccccc3)N(S(=O)(=O)c3ccc(C)cc3)Cc3ccccc32)cc1	13%	20
